These results are taken from patent US8993786B2, “Crystalline fosamprenavir calcium and process for the preparation thereof” (Mylan Laboratories Ltd., priority 2011, dated 2015).

The conditions of data set [1]: cited from earlier work.
The subject of another data set is HIV aspartyl protease. The note with it: cited from earlier work.
Data set [2] can be described thus: Transformation kinetics: slurry in solvents, PXRD. To be noted: 25-30° C., 15 h. Format: physicochemical. From the text:
The solid samples were characterized by PXRD.

Data set [3] is described as follows: Storage stability of Form A: water content by Karl Fischer. It is filed as physicochemical. Here is the method: Water content was determined on Metrohm karl-Fischer titrator (Model: 794 Basic Titrino) using pyridine free single solution (Merck, Mumbai) with sample mass between 450-550 mg.
Data set [4] can be described thus: Storage stability of Form A: polymorph by PXRD. It is filed as physicochemical.
Data set [5] in a line: Physical stability under drying (vacuum) and 90% RH, PXRD. As to the method: The said formic acid solvate of the present invention is characterized by their X-ray powder diffraction pattern. Thus, the X-ray diffraction patterns of said polymorphs of the invention were measured on Bruker AXS D8 Discover powder X-ray diffractometer equipped with a goniometer of θ/2θ configuration, Variol monochromator and Lynx-Eye detector. The Cu-anode X-ray tube was operated at 40 kV and 30 mA. The experiments were conducted over the 2θ range of 2.0°-50.0°, 0.030° step size and 25 seconds step time.
In yet another embodiment, the physical stability of Fosamprenavir calcium Form A was determined by storing 1.0 g of sample at 50° C. and 80° C. under vacuum and at 90% relative humidity (RH). The samples are tested by PXRD after 15 hours and 72 hours. […] Transformation kinetics of Form A was studied by suspending 1 g of Form A in appropriate solvents at 25-30° C. for 15 hours. The solid samples were characterized by PXRD.

Data set [6] is described as follows: Storage stability of Form A: HPLC purity. Here is the method: In yet another embodiment, physical and chemical stability of Fosamprenavir calcium Form A was determined by storing the samples at 40° C./75% relative humidity (RH), at 25° C./60% RH and at 5° C. for 6 months. The material was analyzed by PXRD, water content by Karl Fischer and HPLC for final purity.

Setting [7] is: stored for 6 months at the stress conditions of table 1.

Turning to `CC(C)CN(C[C@@H](O)[C@H](Cc1ccccc1)NC(=O)O[C@H]1CCOC1)S(=O)(=O)c1ccc(N)cc1` (relative stereo) [Amprenavir, [3S-[3R*(1R*,2S*)]]-[3-[[(4-aminophenyl)sulfonyl](2-methyl-propyl)amino]-2-hydroxy-1-phenylmethyl)propyl]-tetrahydro-3-furanyl ester], the Solubility entry in data set [1] is listed as “poor solubility”.

As for `CC(C)CN(C[C@@H](OP(=O)([O-])[O-])[C@H](Cc1ccccc1)NC(=O)O[C@H]1CCOC1)S(=O)(=O)c1ccc(N)cc1.[Ca+2]` [Fosamprenavir Calcium, Calcium (3S) tetrahydro-3-furanyl (1S,2R)-3-[[(4-aminophenyl)sulfonyl](isobutyl)amino]-1-benzyl-2-(phosphonooxy)propylcarbamate], the “HIV aspartyl protease inhibitory activity” value in the data set with HIV aspartyl protease is “has HIV aspartyl protease inhibitory activity”. Moreover, the “Solubility compared to amprenavir” value in data set [1] (pH range of the gastro-intestinal tract) is given as “increased solubility”.

Regarding `CC(C)CN(C[C@@H](OP(=O)([O-])[O-])[C@H](Cc1ccccc1)NC(=O)O[C@H]1CCOC1)S(=O)(=O)c1ccc(N)cc1.[Ca+2]` [Fosamprenavir calcium Form A, Calcium (3S) tetrahydro-3-furanyl (1S,2R)-3-[[(4-aminophenyl)sulfonyl](isobutyl)amino]-1-benzyl-2-(phosphonooxy)propylcarbamate], the “Result (polymorph by PXRD)” value in data set [2] (Slurry in IPE) is “Form A”; in data set [2] (Slurry in acetone), “Form A”; in data set [2] (Slurry in ethyl acetate), “Form A”; in data set [2] (Slurry in n-Heptane), “Form A”; in data set [5] (90% RH, 15 h), “Form A”; in data set [5] (90% RH, 72 h), “Form A”. The “Result (polymorph by PXRD)” value in data set [5] (Drying at 50° C. under vacuum, 15 h) is on record as “Form A”; in data set [5] (Drying at 50° C. under vacuum, 72 h) it was “Form A”; in data set [5] (Drying at 80° C. under vacuum, 15 h), “Form A”; in data set [5] (Drying at 80° C. under vacuum, 72 h) it was “Form A”. The “Water content (% w/w)” value in data set [3] (at 5° C., 1st Month) stood at 3.5 % w/w; in data set [3] (at 5° C., 2nd Month), 4.4 % w/w; in data set [3] (at 5° C., 3rd Month), 4.0 % w/w; in data set [3] (at 5° C., 6th Month) it was 3.5 % w/w; in data set [3] (at 5° C., 15 days), 3.6 % w/w; in data set [3] (at 5° C., Initial) it was 4.2 % w/w. In addition, the “Water content (% w/w)” value in data set [3] (at 25° C./60% RH, 1st Month) is 3.6 % w/w; in data set [3] (at 25° C./60% RH, 2nd Month), 3.7 % w/w; in data set [3] (at 25° C./60% RH, 3rd Month) it was 3.9 % w/w; in data set [3] (at 25° C./60% RH, 6th Month), 3.5 % w/w; in data set [3] (at 25° C./60% RH, 15 days), 3.7 % w/w; in data set [3] (at 25° C./60% RH, Initial), 4.2 % w/w. Besides, the “Water content (% w/w)” value in data set [3] (at 40° C./75% RH, 1st Month) amounted to 3.5 % w/w; in data set [3] (at 40° C./75% RH, 2nd Month) it was 3.9 % w/w; in data set [3] (at 40° C./75% RH, 3rd Month) it was 3.8 % w/w; in data set [3] (at 40° C./75% RH, 6th Month), 3.0 % w/w; in data set [3] (at 40° C./75% RH, 15 days) it was 3.5 % w/w; in data set [3] (at 40° C./75% RH, Initial), 4.2 % w/w. Moreover, the “Change in moisture content on storage” value in data set [3] (setting [7]) is reported as “no substantial increase in moisture content”. Moreover, the PXRD entry is reported as “Form A” in data set [4] (at 5° C., 1st Month); “Form A” in data set [4] (at 5° C., 2nd Month); “Form A” in data set [4] (at 5° C., 3rd Month); “Form A” in data set [4] (at 5° C., 6th Month); “Form A” in data set [4] (at 5° C., 15 days); “Form A” in data set [4] (at 5° C., Initial). Also, the PXRD entry in data set [4] (at 25° C./60% RH, 1st Month) is “Form A”; in data set [4] (at 25° C./60% RH, 2nd Month), “Form A”; in data set [4] (at 25° C./60% RH, 3rd Month) it was “Form A”; in data set [4] (at 25° C./60% RH, 6th Month), “Form A”; in data set [4] (at 25° C./60% RH, 15 days), “Form A”; in data set [4] (at 25° C./60% RH, Initial), “Form A”. The PXRD entry in data set [4] (at 40° C./75% RH, 1st Month) was “Form A”; in data set [4] (at 40° C./75% RH, 2nd Month) it was “Form A”; in data set [4] (at 40° C./75% RH, 3rd Month), “Form A”; in data set [4] (at 40° C./75% RH, 6th Month), “Form A”; in data set [4] (at 40° C./75% RH, 15 days), “Form A”; in data set [4] (at 40° C./75% RH, Initial), “Form A”. In data set [4] (setting [7]), the “Change in PXRD pattern on storage” value is given as “no change in PXRD pattern”. The Change in polymorph entry in data set [5] (50° C. and 80° C. under vacuum and 90% RH, after 15 hours and 72 hours) is recorded as “no change in polymorph”. For the same compound, the Physical stability result in data set [5] (different stress conditions (Table 2)) was “physically stable”. Besides, the “HPLC purity (%)” value worked out at 99.85% in data set [6] (at 5° C., 1st Month); 99.86% in data set [6] (at 5° C., 2nd Month); 99.86% in data set [6] (at 5° C., 3rd Month); 99.86% in data set [6] (at 5° C., 6th Month); 99.85% in data set [6] (at 5° C., 15 days); 99.85% in data set [6] (at 5° C., Initial). The “HPLC purity (%)” value came out at 99.85% in data set [6] (at 25° C./60% RH, 1st Month); 99.86% in data set [6] (at 25° C./60% RH, 2nd Month); 99.87% in data set [6] (at 25° C./60% RH, 3rd Month); 99.85% in data set [6] (at 25° C./60% RH, 6th Month); 99.85% in data set [6] (at 25° C./60% RH, 15 days); 99.85% in data set [6] (at 25° C./60% RH, Initial). The “HPLC purity (%)” value was found to be 99.85% in data set [6] (at 40° C./75% RH, 1st Month); 99.85% in data set [6] (at 40° C./75% RH, 2nd Month); 99.86% in data set [6] (at 40° C./75% RH, 3rd Month); 99.86% in data set [6] (at 40° C./75% RH, 6th Month); 99.84% in data set [6] (at 40° C./75% RH, 15 days); 99.85% in data set [6] (at 40° C./75% RH, Initial). Also, the Degradation on storage result in data set [6] (setting [7]) was “no significant degradation”.
